Source: patent US10689354B2, “Aminoazole derivative” (Teijin Pharma Limited, priority 2015, dated 2020)

molecular target: T1, androgen receptor (AR-LBD) (Rattus norvegicus, UniProt P15207); test: Evaluation of androgen receptor affinity (PolarScreen Androgen Receptor Competitor Assay Kit, Red; fluorescence polarization); conditions: 22° C. for 5 hours, relative to binding rate of 1 μM DHT, read-out: AR affinity (pEC50) (converted)
T1 construct: 5 μL of 2×AR-LBD/Fluoromone AL Red Complex contained in the kit; purchased Invitrogen
T1 sequence (P15207 651-882 limits assumed): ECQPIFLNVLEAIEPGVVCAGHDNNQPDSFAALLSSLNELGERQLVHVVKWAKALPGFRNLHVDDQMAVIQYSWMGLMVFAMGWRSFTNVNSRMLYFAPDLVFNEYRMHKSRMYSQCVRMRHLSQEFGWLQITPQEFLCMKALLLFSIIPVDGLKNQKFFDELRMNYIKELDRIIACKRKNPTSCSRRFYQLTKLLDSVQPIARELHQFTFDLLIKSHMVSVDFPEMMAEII
In short: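 FP competition: compound + AR-LBD/Fluoromone AL Red tracer complex, 22° C, 5 h. Reference 1 μM DHT binding rate; pEC50 by 4-parameter fit.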

Compound	EC50 [nM]
Cc1sc(N(CC2CCC(=O)CC2)c2ccc(C#N)cc2)nc1C(=O)NS(C)(=O)=O [Compound 350, 2-[4-cyano-N-[(4-oxocyclohexyl)methyl]anilino]-5-methyl-N-methylsulfonyl-thiazole-4-carboxamide]	> 2000
Cc1cc(CN(c2ccc(C#N)cc2)c2nc(C(=O)NS(C)(=O)=O)c(C)s2)no1 [Compound 445, 2-[4-cyano-N-[(5-methylisoxazol-3-yl)methyl]anilino]-5-methyl-N-methylsulfonyl-thiazole-4-carboxamide]	631
Cc1sc(N(Cc2ccccc2)CC(O)c2ccccc2)nc1C(=O)NS(C)(=O)=O (centres unmarked) [Compound 462, 2-[benzyl-(2-hydroxy-2-phenyl-ethyl)amino]-5-methyl-N-methylsulfonyl-thiazole-4-carboxamide]	1260
Cc1sc(N(CCc2cccc(S(C)(=O)=O)c2)Cc2ccccc2)nc1C(=O)NS(C)(=O)=O [Compound 331, 2-[benzyl-[2-(3-methylsulfonylphenyl)ethyl]amino]-5-methyl-N-methylsulfonyl-thiazole-4-carboxamide]	> 2000
COCC(CN(c1ccc(C#N)cc1)c1nc(C(=O)NS(C)(=O)=O)c(C)s1)c1ccccc1 (centres unmarked) [Compound 377, 2-(4-cyano-N-(3-methoxy-2-phenyl-propyl)anilino)-5-methyl-N-methylsulfonyl-thiazole-4-carboxamide]	> 2000
Cc1sc(N(CCN2CCCC2=O)c2ccc(C#N)cc2)nc1C(=O)NS(C)(=O)=O [Compound 137, 2-[4-cyano-N-[2-(2-oxopyrrolidin-1-yl)ethyl]anilino]-5-methyl-N-methylsulfonyl-thiazole-4-carboxamide]	> 2000
Cc1sc(N(CC[C@@H]2CC[C@@H](F)C2)c2ccc(C#N)cc2)nc1C(=O)NS(C)(=O)=O (racemic) [Compound 453, 2-[4-cyano-N-[2-[trans-3-fluorocyclopentyl]ethyl]anilino]-5-methyl-N-methylsulfonyl-thiazole-4-carboxamide]	251
Cc1sc(N(CCc2ccc(Cl)cc2)CC2CCCCC2)nc1C(=O)NS(=O)(=O)C(F)(F)F [Compound 700, 2-[2-(4-chlorophenyl)ethyl-(cyclohexylmethyl)amino]-5-methyl-N-(trifluoromethylsulfonyl)thiazole-4-carboxamide]	> 2000
Cc1sc(N(CCc2cccc3ccccc23)c2ccc(C#N)cc2)nc1C(=O)NS(C)(=O)=O [Compound 441, 2-[4-cyano-N-[2-(1-naphthyl)ethyl]anilino]-5-methyl-N-methylsulfonyl-thiazole-4-carboxamide]	251
Cc1sc(N(CCOC(C)C)c2ccc(C#N)cc2)nc1C(=O)NS(C)(=O)=O [Compound 449, 2-[4-cyano-N-(2-isopropoxyethyl)anilino]-5-methyl-N-methylsulfonyl-thiazole-4-carboxamide]	398
Cc1ccn(CCN(Cc2ccccc2)c2nc(C(=O)NS(C)(=O)=O)c(C)s2)n1 [Compound 681, 2-[benzyl-[2-(3-methylpyrazol-1-yl)ethyl]amino]-5-methyl-N-methylsulfonyl-thiazole-4-carboxamide]	> 2000
Cc1sc(N(CCc2c[nH]c3ccccc23)Cc2ccccc2)nc1C(=O)NS(C)(=O)=O [Compound 320, 2-[benzyl-[2-(1H-indol-3-yl)ethyl]amino]-5-methyl-N-methylsulfonyl-thiazole-4-carboxamide]	631
Cc1sc(N(CC(=O)C2CCCCC2)c2ccc(C#N)cc2)nc1C(=O)NS(C)(=O)=O [Compound 432, 2-(4-cyano-N-(2-cyclohexyl-2-oxo-ethyl)anilino)-5-methyl-N-methylsulfonyl-thiazole-4-carboxamide]	> 2000
Cc1sc(N(C)c2ccc(C#N)cc2)nc1C(=O)NS(C)(=O)=O [Compound 60, 2-(4-cyano-N-methyl-anilino)-5-methyl-N-methylsulfonyl-thiazole-4-carboxamide]	> 2000
Cc1sc(N(Cc2ccccc2OC(F)(F)F)c2ccc(C#N)cc2)nc1C(=O)NS(C)(=O)=O [Compound 101, 2-[4-cyano-N-[[2-(trifluoromethoxy)phenyl]methyl]anilino]-5-methyl-N-methylsulfonyl-thiazole-4-carboxamide]	631
Cc1sc(N(Cc2ccccc2)c2cccc(CCO)c2)nc1C(=O)NS(C)(=O)=O [Compound 605, 2-[N-benzyl-3-(2-hydroxyethyl)anilino]-5-methyl-N-methylsulfonyl-thiazole-4-carboxamide]	> 2000
Cc1sc(N(Cc2ccccc2)c2ccc(C#N)cc2Br)nc1C(=O)NS(C)(=O)=O [Compound 142, 2-(N-benzyl-2-bromo-4-cyano-anilino)-5-methyl-N-methylsulfonyl-thiazole-4-carboxamide]	631
Cc1sc(N(Cc2ccccc2)c2ccc(F)cc2F)nc1C(=O)NS(C)(=O)=O [Compound 36, 2-(N-benzyl-2,4-difluoro-anilino)-5-methyl-N-methylsulfonyl-thiazole-4-carboxamide]	1260
CC[C@H](C)CN(c1ccc(C#N)cc1)c1nc(C(=O)NS(C)(=O)=O)c(C)s1 [Compound 446, 2-(4-cyano-N-[(2S)-2-methylbutyl]anilino)-5-methyl-N-methylsulfonyl-thiazole-4-carboxamide]	316
Cc1sc(N(CC(=O)Nc2ccccc2)c2ccc(C#N)cc2)nc1C(=O)NS(C)(=O)=O [Compound 425, 2-(N-(2-anilino-2-oxo-ethyl)-4-cyano-anilino)-5-methyl-N-methylsulfonyl-thiazole-4-carboxamide]	1260
Cc1sc(N(CCn2cncn2)Cc2ccccc2)nc1C(=O)NS(C)(=O)=O [Compound 680, 2-[benzyl-[2-(1,2,4-triazol-1-yl)ethyl]amino]-5-methyl-N-methylsulfonyl-thiazole-4-carboxamide]	> 2000
Cc1sc(N(Cc2ccccc2)c2cccc3c2ccn3C)nc1C(=O)NS(C)(=O)=O [Compound 337, 2-[benzyl-(1-methylindol-4-yl)amino]-5-methyl-N-methylsulfonyl-thiazole-4-carboxamide]	> 2000
Cc1sc(N(Cc2ccccc2)c2ccc(C#N)cc2)nc1C(=O)NS(=O)(=O)/C=C/c1ccccc1 [Compound 385, 2-(N-benzyl-4-cyano-anilino)-5-methyl-N-[(E)-styryl]sulfonyl-thiazole-4-carboxamide]	794
Cc1sc(N(CCCCO)c2ccc(C#N)cc2)nc1C(=O)NS(C)(=O)=O [Compound 358, 2-[4-cyano-N-(4-hydroxybutyl)anilino]-5-methyl-N-methylsulfonyl-thiazole-4-carboxamide]	> 2000

The next lines start with the values.

EC50 [nM]	Compound
1260	Cc1sc(N(CCc2ccccc2C#N)Cc2ccccc2)nc1C(=O)NS(C)(=O)=O [Example 302, 2-[benzyl-[2-(2-cyanophenyl)ethyl]amino]-5-methyl-N-methylsulfonyl-thiazole-4-carboxamide]
> 2000	COC(=O)c1ccc(N(Cc2ccccc2)c2nc(C(=O)NS(C)(=O)=O)c(C)s2)nn1 [Example 239, methyl 6-[benzyl-[5-methyl-4-(methylsulfonylcarbamoyl)thiazol-2-yl]amino]pyridazine-3-carboxylate]
> 2000	Cc1sc(N(Cc2ccccc2)Cc2ccc(C#N)cc2)nc1C(=O)NS(C)(=O)=O [Example 289, 2-[benzyl-[(4-cyanophenyl)methyl]amino]-5-methyl-N-methylsulfonyl-thiazole-4-carboxamide]
> 2000	Cc1sc(N(Cc2ccccc2)c2cccc(OCCO)c2)nc1C(=O)NS(C)(=O)=O [Example 210, 2-[N-benzyl-3-(2-hydroxyethoxy)anilino]-5-methyl-N-methylsulfonyl-thiazole-4-carboxamide]
> 2000	Cc1sc(N(c2ccc(C#N)cc2F)[C@@H](CO)Cc2ccccc2)nc1C(=O)NS(C)(=O)=O [Example 287, 2-(N-[(1R)-1-benzyl-2-hydroxy-ethyl]-4-cyano-2-fluoro-anilino)-5-methyl-N-methylsulfonyl-thiazole-4-carboxamide]
> 2000	CNC(=O)COc1ccc(N(Cc2ccccc2)c2nc(C(=O)NS(C)(=O)=O)c(C)s2)cc1 [Example 213, 2-[N-benzyl-4-[2-(methylamino)-2-oxo-ethoxy]anilino]-5-methyl-N-methylsulfonyl-thiazole-4-carboxamide]
> 2000	Cc1ncsc1CCN(Cc1ccccc1)c1nc(C(=O)NS(C)(=O)=O)c(C)s1 [Example 311, 2-[benzyl-[2-(4-methylthiazol-5-yl)ethyl]amino]-5-methyl-N-methylsulfonyl-thiazole-4-carboxamide]
> 2000	COc1ccc(CCN(Cc2ccccc2)c2nc(C(=O)NS(C)(=O)=O)c(C)s2)cc1OC [Example 307, 2-[benzyl-[2-(3,4-dimethoxyphenyl)ethyl]amino]-5-methyl-N-methylsulfonyl-thiazole-4-carboxamide]
> 2000	Cc1sc(N(Cc2ccccc2)c2ccc(OCCO)cc2)nc1C(=O)NS(C)(=O)=O [Example 211, 2-[N-benzyl-4-(2-hydroxyethoxy)anilino]-5-methyl-N-methylsulfonyl-thiazole-4-carboxamide]
31.6	Cc1cccc(CN(c2ccc(C#N)cc2)c2nc(C(=O)NS(C)(=O)=O)c(Cl)s2)c1 [Example 266, 5-chloro-2-[4-cyano-N-(m-tolylmethyl)anilino]-N-methylsulfonyl-thiazole-4-carboxamide]
158	Cc1ccccc1CN(c1ccc(C#N)cc1)c1nc(C(=O)NS(C)(=O)=O)c(Br)s1 [Example 264, 5-bromo-2-[4-cyano-N-(o-tolylmethyl)anilino]-N-methylsulfonyl-thiazole-4-carboxamide]
